Here are results for one compound from ChEMBL document CHEMBL1153138, “2,4-Diaminopyrimidine MK2 inhibitors. Part II: Structure-based inhibitor optimization” (Bioorg Med Chem Lett, 2010).

Common to all, as to parameters: dose 3 mg/kg, route intravenous
Holding throughout (conditions): in vivo

Data set [1] deals with Rattus norvegicus. Nature of the data set: Clearance in Sprague-Dawley rat at 3 mg/kg, iv. In kind it is ADME, organism-based.
The subject of data set [2] is Rattus norvegicus. Nature of the data set: Half life in Sprague-Dawley rat at 3 mg/kg, iv. In kind it is ADME, organism-based.
Data set [3] has as its system Rattus norvegicus. Nature of the data set: Terminal Phase volume of distribution at steady state in Sprague-Dawley rat at 3 mg/kg, iv. It is filed as ADME, organism-based.
For data set [4], the system named is Rattus norvegicus. Nature of the data set: AUC in Sprague-Dawley rat at 3 mg/kg, iv. It is filed as ADME, organism-based, Plasma.

As a reminder, the AUC is the area under the concentration-time curve, a measure of exposure. Low values mean low exposure, high ones high exposure. Turning to `NCCCn1cc(-c2cc(-c3cc4ccccc4s3)c3[nH]ncc3c2)c2nc(N)ncc21`, the CL with Rattus norvegicus [1] came out at 28.3 mL/min/kg. In the data set with Rattus norvegicus [2], this compound returned a t1/2 of 5.5 h. The Vbeta with Rattus norvegicus [3] stood at 4 L/kg. Further, the AUC with Rattus norvegicus [4] was 4200 ng·h/mL.
